{"source": "patent US9700516B2", "about": "“Compositions and methods for reducing overdose” (priority 2014, dated 2017)", "assay": "Effect of alkalinizing agents on the pH of a solution of 0.1 N HCl with a starting pH of 2.0", "assay_type": "physicochemical", "method": "Various alkalinizing agents were added to a solution of 0.1 N HCl with a starting pH of 2.0 and the pH of the solution was tested at different time points."}
{"compound": "CCCCCCCCCCCCOS(=O)(=O)[O-].[Na+]", "note": "[sodium lauryl sulfate]", "values": [{"measurement": "pH", "setting": "10 mg (10.22 mg actual) in 200 ml, 0 min", "result": 2.67}, {"measurement": "pH", "setting": "10 mg (10.22 mg actual) in 200 ml, 1 min", "result": 2.68}, {"measurement": "pH", "setting": "10 mg (10.22 mg actual) in 200 ml, 2 min", "result": 2.68}, {"measurement": "pH", "setting": "10 mg (10.22 mg actual) in 200 ml, 3 min", "result": 2.68}, {"measurement": "pH", "setting": "10 mg (10.22 mg actual) in 200 ml, 4 min", "result": 2.67}, {"measurement": "pH", "setting": "10 mg (10.22 mg actual) in 200 ml, 5 min", "result": 2.67}, {"measurement": "pH", "setting": "10 mg (10.22 mg actual) in 200 ml, 6 min", "result": 2.67}, {"measurement": "pH", "setting": "10 mg (10.22 mg actual) in 200 ml, 7 min", "result": 2.67}, {"measurement": "pH", "setting": "10 mg (10.22 mg actual) in 200 ml, 8 min", "result": 2.67}, {"measurement": "pH", "setting": "10 mg (10.22 mg actual) in 200 ml, 9 min", "result": 2.67}, {"measurement": "pH", "setting": "10 mg (10.22 mg actual) in 200 ml, 10 min", "result": 2.67}, {"measurement": "pH", "setting": "10 mg (10.22 mg actual) in 200 ml, 20 min", "result": 2.67}, {"measurement": "pH", "setting": "10 mg (10.22 mg actual) in 200 ml, 30 min", "result": 2.67}, {"measurement": "effect on pH of the solution", "setting": "10 mg in 200 ml, 30 minute timecourse", "result": "insufficient to substantially raise the pH of the solution"}]}
{"compound": "O=C([O-])CC(O)(CC(=O)[O-])C(=O)[O-].[Na+].[Na+].[Na+]", "note": "[Sodium Citrate, sodium citrate]", "values": [{"measurement": "pH", "setting": "930 mg in 200 ml, 10 min", "result": 5.53}, {"measurement": "pH", "setting": "930 mg in 200 ml, 20 min", "result": 5.53}, {"measurement": "pH", "setting": "930 mg in 200 ml, 30 min", "result": 5.53}, {"measurement": "pH", "setting": "930 mg in 200 ml, 40 min", "result": 5.53}, {"measurement": "pH", "setting": "930 mg in 200 ml, 50 min", "result": 5.53}, {"measurement": "pH", "setting": "930 mg in 200 ml, 60 min", "result": 5.53}]}
{"compound": "CNC[C@H](O)[C@@H](O)[C@H](O)[C@H](O)CO", "note": "[Meglumine, meglumine]", "values": [{"measurement": "pH", "setting": "120 mg in 200 ml, 10 min", "result": 2.16}, {"measurement": "pH", "setting": "120 mg in 200 ml, 20 min", "result": 2.16}, {"measurement": "pH", "setting": "120 mg in 200 ml, 30 min", "result": 2.16}, {"measurement": "pH", "setting": "120 mg in 200 ml, 40 min", "result": 2.16}, {"measurement": "pH", "setting": "120 mg in 200 ml, 50 min", "result": 2.16}, {"measurement": "pH", "setting": "120 mg in 200 ml, 60 min", "result": 2.16}]}
{"compound": "CC(=O)[O-].[Na+]", "note": "[Sodium Acetate, sodium acetate]", "values": [{"measurement": "pH", "setting": "200 mg in 200 ml, 10 min", "result": 4.73}, {"measurement": "pH", "setting": "200 mg in 200 ml, 20 min", "result": 4.96}, {"measurement": "pH", "setting": "200 mg in 200 ml, 30 min", "result": 5.08}, {"measurement": "pH", "setting": "200 mg in 200 ml, 40 min", "result": 5.21}, {"measurement": "pH", "setting": "200 mg in 200 ml, 50 min", "result": 5.34}, {"measurement": "pH", "setting": "200 mg in 200 ml, 60 min", "result": 5.34}]}
{"compound": "O=C([O-])[O-].[Na+].[Na+]", "note": "[sodium carbonate]", "values": [{"measurement": "pH", "setting": "11.13 mg/200 ml, 0 min", "result": 2.66}, {"measurement": "pH", "setting": "11.13 mg/200 ml, 1 min", "result": 2.80}, {"measurement": "pH", "setting": "11.13 mg/200 ml, 2 min", "result": 2.80}, {"measurement": "pH", "setting": "11.13 mg/200 ml, 3 min", "result": 2.80}, {"measurement": "pH", "setting": "11.13 mg/200 ml, 4 min", "result": 2.80}, {"measurement": "pH", "setting": "11.13 mg/200 ml, 5 min", "result": 2.80}, {"measurement": "pH", "setting": "11.13 mg/200 ml, 10 min", "result": 2.80}, {"measurement": "pH", "setting": "11.13 mg/200 ml, 15 min", "result": 2.80}, {"measurement": "pH", "setting": "11.13 mg/200 ml, 20 min", "result": 2.80}, {"measurement": "pH", "setting": "11.13 mg/200 ml, 60 min", "result": 2.80}, {"measurement": "pH", "setting": "30.11 mg/200 ml, 0 min", "result": 2.57}, {"measurement": "pH", "setting": "30.11 mg/200 ml, 1 min", "result": 3.21}, {"measurement": "pH", "setting": "30.11 mg/200 ml, 2 min", "result": 3.24}, {"measurement": "pH", "setting": "30.11 mg/200 ml, 3 min", "result": 3.25}, {"measurement": "pH", "setting": "30.11 mg/200 ml, 4 min", "result": 3.25}, {"measurement": "pH", "setting": "30.11 mg/200 ml, 5 min", "result": 3.26}, {"measurement": "pH", "setting": "30.11 mg/200 ml, 10 min", "result": 3.27}, {"measurement": "pH", "setting": "30.11 mg/200 ml, 15 min", "result": 3.27}, {"measurement": "pH", "setting": "30.11 mg/200 ml, 20 min", "result": 3.27}, {"measurement": "pH", "setting": "30.11 mg/200 ml, 60 min", "result": 3.27}, {"measurement": "effect on pH of the solution", "setting": "81.68 mg in 200 ml", "result": "raise the pH of the 200 ml solution to above neutral"}, {"measurement": "pH", "setting": "81.68 mg/200 ml, 0 min", "result": 2.73}, {"measurement": "pH", "setting": "81.68 mg/200 ml, 1 min", "result": 9.02}, {"measurement": "pH", "setting": "81.68 mg/200 ml, 2 min", "result": 9}, {"measurement": "pH", "setting": "81.68 mg/200 ml, 3 min", "result": 8.97}, {"measurement": "pH", "setting": "81.68 mg/200 ml, 4 min", "result": 8.95}, {"measurement": "pH", "setting": "81.68 mg/200 ml, 5 min", "result": 8.93}, {"measurement": "pH", "setting": "81.68 mg/200 ml, 10 min", "result": 8.83}, {"measurement": "pH", "setting": "81.68 mg/200 ml, 15 min", "result": 8.81}, {"measurement": "pH", "setting": "81.68 mg/200 ml, 20 min", "result": 8.5}, {"measurement": "pH", "setting": "81.68 mg/200 ml, 60 min", "result": 8.25}, {"measurement": "pH of the solution", "setting": "all tested amounts, over the times tested", "result": "> 2.0"}]}
